Test results as given in PubChem BioAssay AID1963860 (Molecular Pharmacology Branch, DTP, NCI, 2024).

Test system: CN0375-F725-PDC KRAS spheroid viability
Experiment: Anticancer human tumor CN0375-F725-PDC patient-derived colon carcinoma cell line growth inhibition [KRAS2]
Conditions: spheroids with HUVEC and MSC; for viability, T/C: stronger effect = lower value
Description: Multicellular complex tumor spheroid response to RAS pathway inhibitors in combination with a targeted agents in patient-derived cell lines with oncogenic KRAS variants from multiple cancer types
A high-throughput screen of multi-cell type tumor spheroids was designed to identify active combinations of targeted small molecules and KRAS pathway inhibitors. Complex spheroids include a stromal component modeled by human endothelial cells (HUVEC) and fibroblasts modeled by human mesenchymal stem cells (MSCs). The concentration ranges selected for each drug and investigational agent were based upon clinically achievable concentrations if the clinical Cmax of the agent was known.
Compounds. The drugs and investigational agents: BI-3406 (NSC825286), BAY-293 (NSC824723), batoprotafib (TNO155; NSC825523), sotorasib (AMG 510; NSC818433), MRTX1257 (NSC819558), elimusertib (BAY 1895344; NSC800525), molibresib (GSK525762; NSC774829), temuterkib (LY3214996; NSC803410), venetoclax (NSC766270), alisertib (NSC759677), olaparib (NSC753686), talazoparib (NSC767125), erdafitinib (NSC781556), ipatasertib (NSC767898), cabozantinib (NSC761068), nintedanib (NSC756659), abemaciclib (NSC768073), docetaxel (NSC628503), trametinib (NSC758246), and sapanisertib (NSC764658) were obtained from the National Cancer Institute (NCI) Developmental Therapeutics Program Chemical Repository. The FDA-approved anticancer drug set is available from the Developmental Therapeutics Program. […] The stock solutions were prepared in dimethyl sulfoxide (DMSO, Sigma-Aldrich, St. Louis, MO, cat. D2650) at 800-fold the tested concentration and stored at -70 degrees C prior to their use. All drugs and investigational agents were tested over a range starting from a high concentration at or near the clinical Cmax and decreasing in half-log increments. If the clinical Cmax for an agent had not been determined, the highest concentration tested was 10 microM.
Cell Culture. All cells were maintained in an incubator at 37 degrees C and 5% CO2 with 95% humidity. The PDC lines were cultured according to standard operating procedures established by the NCI PDMR (https://pdmr.cancer.gov/sops/default.htm). Briefly, all PDCs were thawed and cultured in Matrigel-coated flasks prepared with a working solution of 1X Ham's F-12 nutrient mix, without supplementation (Invitrogen, Waltham, MA, cat. 11765054), 100 U/mL penicillin-streptomycin (Invitrogen, cat. 15140122), and 2.5% Matrigel (Corning Inc., Corning, NY, cat. 354248) for the first three passages. All PDCs were cultured in complete DMEM/F-12 media containing advanced DMEM/F-12 (Invitrogen, cat. 12634028), 4.9% defined fetal bovine serum, heat inactivated (HyClone Laboratories Inc., Logan, UT, cat. SH30070.03HI), 389 ng/mL hydrocortisone (Sigma-Aldrich, cat. H4001), 9.7 ng/mL human EGF recombinant protein (Invitrogen, cat. PHG0313), 23.4 microg/mL adenine (Sigma-Aldrich, cat. A2786), 97.3 U/mL penicillin-streptomycin (Invitrogen, cat. 15140122), 1.9 mM L-glutamine (Invitrogen, cat. 25030081), and 9.7 microM Y-27632 dihydrochloride (Tocris Bioscience, Bristol, United Kingdom, cat. 1254). The PDCs were cultured in complete DMEM/F12 media without 9.7 microM Y-27632 dihydrochloride for at least two passages prior to the screen. The established cell line HOP-62 was cultured in RPMI 1640 medium, HEPES (Invitrogen, cat. 22400105) with 10% defined fetal bovine serum (HyClone Laboratories Inc., cat. SH30070.03) and 2 mM L-glutamine (Invitrogen, cat. 25030081). The pooled donor HUVEC were cultured in endothelial cell growth medium 2 (PromoCell, Heidelberg, Germany, cat. C-22011) and the hMSC were cultured in mesenchymal stem cell growth medium 2 (PromoCell, cat. C-28009). For all experiments, HUVEC and hMSC were used at passages </=5, while the malignant cell lines were used at passages </=15. […]
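Note: spheroids exposed to agents for 7 days.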

COc1cc2nc(C)nc(NC(C)c3cc(N)cc(C(F)(F)F)c3)c2cc1OC1CCOC1 (stereo unspecified)
viability, T/C (compound 0.1 µM): 96.2% [middle of 17 runs] | viability, T/C (compound 0.316 µM): 92.3% [middle of 17 runs] | viability, T/C (compound 1 µM): 90.5% [middle of 17 runs] | viability, T/C (compound 3.16 µM): 83.4% [middle of 17 runs] | IC50 (compound alone, run of 08/26/2021): 5.77 µM [middle of 4 runs] | IC50 (compound alone, run of 09/02/2021): 5.43 µM [middle of 6 runs]

COc1cc2nccc(Oc3ccc(NC(=O)C4(C(=O)Nc5ccc(F)cc5)CC4)cc3)c2cc1OC + C=CC(=O)N1CCN(c2nc(OCC3CCCN3C)nc3c2CCN(c2cccc4cccc(C)c24)C3)CC1CC#N
IC50 (curve of first compound, second compound 0.0316 µM): > 10 µM | IC50 (curve of first compound, second compound 0.1 µM): > 10 µM | IC50 (curve of first compound, second compound 0.316 µM): > 10 µM | IC50 (curve of first compound, second compound 1 µM): 1.91 µM | IC50 (curve of first compound, second compound 3.16 µM): < 0.0316 µM | viability, T/C (second compound 0.0316 µM, first compound 0.0316 µM): 106% | viability, T/C (second compound 0.0316 µM, first compound 0.1 µM): 100% | viability, T/C (second compound 0.0316 µM, first compound 0.316 µM): 91.3% | viability, T/C (second compound 0.0316 µM, first compound 1 µM): 85.9% | viability, T/C (second compound 0.0316 µM, first compound 3.16 µM): 61.1% | viability, T/C (second compound 0.0316 µM, first compound 10 µM): 69.8% | viability, T/C (second compound 0.1 µM, first compound 0.0316 µM): 101% | viability, T/C (second compound 0.1 µM, first compound 0.1 µM): 101% | viability, T/C (second compound 0.1 µM, first compound 0.316 µM): 92.6% | viability, T/C (second compound 0.1 µM, first compound 1 µM): 83.2% | viability, T/C (second compound 0.1 µM, first compound 3.16 µM): 53.8% | viability, T/C (second compound 0.1 µM, first compound 10 µM): 68.9% | viability, T/C (second compound 0.316 µM, first compound 0.0316 µM): 96.6% | viability, T/C (second compound 0.316 µM, first compound 0.1 µM): 100% | viability, T/C (second compound 0.316 µM, first compound 0.316 µM): 85.9% | viability, T/C (second compound 0.316 µM, first compound 1 µM): 80.7% | viability, T/C (second compound 0.316 µM, first compound 3.16 µM): 56.9% | viability, T/C (second compound 0.316 µM, first compound 10 µM): 52.8% | viability, T/C (second compound 1 µM, first compound 0.0316 µM): 95.5% | viability, T/C (second compound 1 µM, first compound 0.1 µM): 92% | viability, T/C (second compound 1 µM, first compound 0.316 µM): 90.7% | viability, T/C (second compound 1 µM, first compound 1 µM): 75.7% | viability, T/C (second compound 1 µM, first compound 3.16 µM): 29.9% | viability, T/C (second compound 1 µM, first compound 10 µM): 9.59% | viability, T/C (second compound 3.16 µM, first compound 0.0316 µM): 14.4% | viability, T/C (second compound 3.16 µM, first compound 0.1 µM): 18.7% | viability, T/C (second compound 3.16 µM, first compound 0.316 µM): 3.2% | viability, T/C (second compound 3.16 µM, first compound 1 µM): 0.26% | viability, T/C (second compound 3.16 µM, first compound 3.16 µM): 0.13% | viability, T/C (second compound 3.16 µM, first compound 10 µM): 0.17%
